Key:
[1] = tested on: TGF-β-stimulated SMAD3 phosphorylation in BEAS-2B cells; experiment: Cellular ALK5 potency assay, inhibition of TGF-β stimulated pSMAD3 formation in BEAS-2B cells; type: cell-based; settings: Homo sapiens; inhibition of TGF-β stimulated pSMAD3 formation, BEAS-2B cells; read-out: BEAS2B pIC50 (converted)
Outline: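 Potency is reported as pIC50, derived from concentration-dependent reduction of pSMAD3 AlphaLISA signal against TGF-β-stimulated cells without compound. BEAS-2B cells received compound for 1 h before a 30-min stimulation with 10 ng/mL TGF-β.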

[2] = target: T1, recombinant human ALK5 (TGF-βR1) protein (Homo sapiens, UniProt P36897); experiment: Biochemical ALK5 (TGF-βR1) assay to measure pKi (LANCE Ultra ULight kinase assay); settings: apparent pKi from pIC50 by Cheng-Prusoff, read-out: ALK5 pKi (converted)
T1 construct: purchased Life Technologies PR9075A
T1 sequence (P36897 34-503): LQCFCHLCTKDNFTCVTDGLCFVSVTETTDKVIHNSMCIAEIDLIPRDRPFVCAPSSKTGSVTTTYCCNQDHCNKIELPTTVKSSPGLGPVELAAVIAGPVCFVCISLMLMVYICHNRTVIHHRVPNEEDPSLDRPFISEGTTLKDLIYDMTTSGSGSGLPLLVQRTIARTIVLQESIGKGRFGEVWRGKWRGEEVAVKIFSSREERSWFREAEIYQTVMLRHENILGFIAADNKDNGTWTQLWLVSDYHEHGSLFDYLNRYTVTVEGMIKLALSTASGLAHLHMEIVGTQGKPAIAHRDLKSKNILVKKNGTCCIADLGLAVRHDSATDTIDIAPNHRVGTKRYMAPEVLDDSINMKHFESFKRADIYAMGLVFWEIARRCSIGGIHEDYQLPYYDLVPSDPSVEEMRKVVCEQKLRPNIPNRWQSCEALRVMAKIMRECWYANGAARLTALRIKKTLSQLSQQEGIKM
Outline: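 After a 60 min room-temperature preincubation of ALK5 with compound, phosphorylation proceeds 60 min at 37 °C on ATP addition (125 μM as 5× stock). Detection: Eu-labelled phospho-Thr1342 Topo IIα antibody in EDTA buffer, pH 7.0; emission 665 nm.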

Compound	IC50 [1]	Ki [2]
Cc1cccc(-c2[nH]cnc2-c2ccc3ncc(C4=CCCCC4)cc3c2)n1 [Compound 147, 3-(cyclohexen-1-yl)-6-[5-(6-methyl-2-pyridyl)-1H-imidazol-4-yl]quinoline]	25.1 to 158 nM	0.0398 to 0.316 nM
Cc1cccc(-c2[nH]cnc2-c2ccc3ncc(N4C[C@@H](C)N[C@@H](C)C4)cc3c2)n1 [Compound 148, 3-[(3R,5S)-3,5-dimethylpiperazin-1-yl]-6-[5-(6-methyl-2-pyridyl)-1H-imidazol-4-yl]quinoline]	25.1 to 158 nM	0.0398 to 0.316 nM
Cc1cccc(-c2[nH]cnc2-c2ccc3ncc(C4=CCC(N)CC4)cc3n2)n1 (stereo not shown) [Compound 149, 4-[6-[5-(6-methyl-2-pyridyl)-1H-imidazol-4-yl]-1,5-naphthyridin-3-yl]cyclohex-3-en-1-amine]	25.1 to 158 nM	< 0.0316 nM
Cc1cccc(-c2[nH]cnc2-c2ccc3ncc(C4=CCC(NCC(CCO)C(=O)O)CC4)cc3c2)n1 (stereo not shown) [Compound 150, 4-hydroxy-2-[[[4-[6-[5-(6-methyl-2-pyridyl)-1H-imidazol-4-yl]-3-quinolyl]cyclohex-3-en-1-yl]amino]methyl]butanoic acid]	200 to 1260 nM	< 0.0316 nM
Cc1cccc(-c2n[nH]cc2-c2ccc3ncc(N4CCC5NCCC5C4)cc3n2)n1 (stereo not shown) [Compound 151, 7-(1,2,3,3a,4,6,7,7a-octahydropyrrolo[3,2-c]pyridin-5-yl)-2-[3-(6-methyl-2-pyridyl)-1H-pyrazol-4-yl]-1,5-naphthyridine]	25.1 to 158 nM	0.0398 to 0.316 nM
CNCCn1ccc(-c2cnc3ccc(-c4nc[nH]c4-c4cccc(C)n4)nc3c2)n1 [Compound 152, N-methyl-2-[3-[6-[5-(6-methyl-2-pyridyl)-1H-imidazol-4-yl]-1,5-naphthyridin-3-yl]pyrazol-1-yl]ethanamine]	25.1 to 158 nM	< 0.0316 nM
Cc1cccc(-c2[nH]cnc2-c2ccc3ncc(C4=CCC(NC(=O)N5CCNCC5)CC4)cc3c2)n1 (stereo not shown) [Compound 153, N-[4-[6-[5-(6-methyl-2-pyridyl)-1H-imidazol-4-yl]-3-quinolyl]cyclohex-3-en-1-yl]piperazine-1-carboxamide]	200 to 1260 nM	0.0398 to 0.316 nM
Cc1cccc(-c2[nH]cnc2-c2ccc3nccc(C4CCCN4)c3c2)n1 (stereo not shown) [Compound 154, 6-[5-(6-methyl-2-pyridyl)-1H-imidazol-4-yl]-4-pyrrolidin-2-yl-quinoline]	200 to 1260 nM	3.98 to 31.6 nM
Cc1cccc(-c2n[nH]cc2-c2ccc3ncc(CNCCCN4CCOCC4)cc3n2)n1 [Compound 155, N-[[6-[3-(6-methyl-2-pyridyl)-1H-pyrazol-4-yl]-1,5-naphthyridin-3-yl]methyl]-3-morpholino-propan-1-amine]	25.1 to 158 nM	0.398 to 3.16 nM
Cc1cccc(-c2n[nH]cc2-c2ccc3ncc(N4CC(N5CCOCC5)C4)cc3n2)n1 [Compound 156, 4-[1-[6-[3-(6-methyl-2-pyridyl)-1H-pyrazol-4-yl]-1,5-naphthyridin-3-yl]azetidin-3-yl]morpholine]	< 20 nM	< 0.0316 nM
Cc1cccc(-c2n[nH]cc2-c2ccc3ncc(-c4c[nH]cn4)cc3n2)n1 [Compound 157, 7-(1H-imidazol-4-yl)-2-[3-(6-methyl-2-pyridyl)-1H-pyrazol-4-yl]-1,5-naphthyridine]	25.1 to 158 nM	0.0398 to 0.316 nM
Cc1cccc(-c2[nH]cnc2-c2ccc3ncc(-c4ccc(C(=O)O[C@@H]5CCN(C)C5)cc4)cc3c2)n1 [Compound 158, [(3R)-1-methylpyrrolidin-3-yl] 4-[6-[5-(6-methyl-2-pyridyl)-1H-imidazol-4-yl]-3-quinolyl]benzoate]	25.1 to 158 nM	0.0398 to 0.316 nM
Cc1cccc(-c2[nH]cnc2-c2ccc3ncc(N4CC5(CCCNC5)C4)cc3c2)n1 [Compound 159, 3-(2,8-diazaspiro[3.5]nonan-2-yl)-6-[5-(6-methyl-2-pyridyl)-1H-imidazol-4-yl]quinoline]	< 20 nM	< 0.0316 nM
Cc1cccc(-c2[nH]cnc2-c2ccc3ncc(N4CCC5(CCNCC5)C4)cc3c2)n1 [Compound 160, 2-[6-[5-(6-methyl-2-pyridyl)-1H-imidazol-4-yl]-3-quinolyl]-2,8-diazaspiro[4.5]decane]	25.1 to 158 nM	< 0.0316 nM
CNCCn1cc(-c2cnc3ccc(-c4c(-c5cccc(C)n5)[nH]c5ccccc45)cc3c2)cn1 [Compound 162, N-methyl-2-[4-[6-[2-(6-methyl-2-pyridyl)-1H-indol-3-yl]-3-quinolyl]pyrazol-1-yl]ethanamine]	200 to 1260 nM	0.0398 to 0.316 nM
Cc1cccc(-c2[nH]cnc2-c2ccc3ncc(-c4ccc5c(c4)CC(N)C5)cc3c2)n1 (stereo not shown) [Compound 163, 5-[6-[5-(6-methyl-2-pyridyl)-1H-imidazol-4-yl]-3-quinolyl]indan-2-amine]	< 20 nM	0.0398 to 0.316 nM
Cc1cccc(-c2[nH]cnc2-c2ccc3ncc(Nc4nc(CN5CCNCC5)cs4)cc3c2)n1 [Compound 164, N-[6-[5-(6-methyl-2-pyridyl)-1H-imidazol-4-yl]-3-quinolyl]-4-(piperazin-1-ylmethyl)thiazol-2-amine]	200 to 1260 nM	0.0398 to 0.316 nM
CNCCn1cc(-c2cnc3ccc(-c4c(-c5cccc(C)n5)[nH]c5cccnc45)nc3c2)cn1 [Compound 165, N-methyl-2-[4-[6-[2-(6-methyl-2-pyridyl)-1H-pyrrolo[3,2-b]pyridin-3-yl]-1,5-naphthyridin-3-yl]pyrazol-1-yl]ethanamine]	200 to 1260 nM	0.0398 to 0.316 nM
Cc1nc(-c2n[nH]cc2-c2ccc3ncc(NCCN4CCN(C(C)C)CC4)cc3c2)ccc1F [Compound 166, 6-[3-(5-fluoro-6-methyl-2-pyridyl)-1H-pyrazol-4-yl]-N-[2-(4-isopropylpiperazin-1-yl)ethyl]quinolin-3-amine]	25.1 to 158 nM	0.0398 to 0.316 nM
CCOC(=O)C1CC=C(c2cnc3ccc(-c4nc[nH]c4-c4cccc(C)n4)cc3c2)CC1 (stereo not shown) [Compound 167, ethyl 4-[6-[5-(6-methyl-2-pyridyl)-1H-imidazol-4-yl]-3-quinolyl]cyclohex-3-ene-1-carboxylate]	25.1 to 158 nM	0.0398 to 0.316 nM
Cc1cccc(-c2[nH]cnc2-c2ccc3ncc(N4CCN[C@@H](C(=O)O)C4)cc3c2)n1 [Compound 168, (2R)-4-[6-[5-(6-methyl-2-pyridyl)-1H-imidazol-4-yl]-3-quinolyl]piperazine-2-carboxylic acid]	1580 to 10000 nM	0.0398 to 0.316 nM
Cc1nc(-c2nc3ccccn3c2-c2ccc3ncc(-c4cn[nH]c4)cc3n2)ccc1F [Compound 169, 2-[2-(5-fluoro-6-methyl-2-pyridyl)imidazo[1,2-a]pyridin-3-yl]-7-(1H-pyrazol-4-yl)-1,5-naphthyridine]	< 20 nM	0.0398 to 0.316 nM
Cc1cccc(-c2nnn(Cc3ccccc3)c2-c2ccc3ncc(-c4cn[nH]c4)cc3n2)n1 [Compound 170, 2-[3-benzyl-5-(6-methyl-2-pyridyl)triazol-4-yl]-7-(1H-pyrazol-4-yl)-1,5-naphthyridine]	25.1 to 158 nM	0.0398 to 0.316 nM
Cc1cccc(-c2[nH]cnc2-c2ccc3ncc(C4=CC[C@@H](N)CC4)cc3c2)n1 [Compound 171, (1S)-4-[6-[5-(6-methyl-2-pyridyl)-1H-imidazol-4-yl]-3-quinolyl]cyclohex-3-en-1-amine]	< 20 nM	< 0.0316 nM
Cc1cccc(-c2n[nH]cc2-c2ccc3ncc(-c4cccc(C(=O)O)c4)cc3n2)n1 [Compound 172, 3-[6-[3-(6-methyl-2-pyridyl)-1H-pyrazol-4-yl]-1,5-naphthyridin-3-yl]benzoic acid]	1580 to 10000 nM	< 0.0316 nM
Cc1nc(-c2n[nH]cc2-c2ccc3ncc(-c4[nH]nc5c4CNCC5)cc3n2)ccc1F [Compound 173, 2-[3-(5-fluoro-6-methyl-2-pyridyl)-1H-pyrazol-4-yl]-7-(4,5,6,7-tetrahydro-2H-pyrazolo[4,3-c]pyridin-3-yl)-1,5-naphthyridine]	200 to 1260 nM	0.0398 to 0.316 nM
Cc1nc(-c2n[nH]cc2-c2ccc3ncc(-c4ncc5n4CCN5)cc3n2)ccc1F [Compound 174, 7-(2,3-dihydro-1H-imidazo[1,2-c]imidazol-5-yl)-2-[3-(5-fluoro-6-methyl-2-pyridyl)-1H-pyrazol-4-yl]-1,5-naphthyridine]	200 to 1260 nM	0.0398 to 0.316 nM
Cc1cccc(-c2n[nH]cc2-c2ccc3ncc(-c4nc5c(s4)CNCC5)cc3n2)n1 [Compound 175, 2-[6-[3-(6-methyl-2-pyridyl)-1H-pyrazol-4-yl]-1,5-naphthyridin-3-yl]-4,5,6,7-tetrahydrothiazolo[5,4-c]pyridine]	25.1 to 158 nM	0.0398 to 0.316 nM
Cc1nc(-c2n[nH]cc2-c2ccc3ncc(-c4nc5n(n4)CCNC5)cc3n2)ccc1F [Compound 176, 2-[3-(5-fluoro-6-methyl-2-pyridyl)-1H-pyrazol-4-yl]-7-(5,6,7,8-tetrahydro-[1,2,4]triazolo[1,5-a]pyrazin-2-yl)-1,5-naphthyridine]	25.1 to 158 nM	0.0398 to 0.316 nM

Source: US11590116B2 (THERAVANCE BIOPHARMA R&D IP, LLC, priority 2019, dated 2023)
